pIC50: −log10 of the molar value. Calls of active or inactive are those of the source. How the calls were made is not given here.
System: T. cruzi-infected H9C2 cardiomyocytes, high-content imaging
Test: anti-T. cruzi activity in infected cardiomyocytes – imaging, H9C2 host cardiomyocytes, host toxicity (AID 1159565);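 further: infected cells incubated 72 h after plating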
[1] = measured here: H9C2 host cell toxicity
[2] = measured here: amastigotes per cell

O=C(Nc1ccc(S(=O)(=O)N2CCCC2)cc1)c1ccc([N+](=O)[O-])s1
pIC50: 6.70
pIC50 [1]: 5.80
pIC50 [2]: 6.70

O=C(CN1CCN(S(=O)(=O)c2cccc([N+](=O)[O-])c2)CC1)Nc1ccc(Oc2ccccc2)cc1
pIC50: 5.60
pIC50 [1]: < 4.30
pIC50 [2]: 5.89

O=C(CN(Cc1ccccn1)Cc1ccccn1)NCc1ccc(-c2csnn2)cc1
pIC50: 4.20
pIC50 [1]: < 4.10
pIC50 [2]: 5.10

O=C(Nc1ccc(C(F)(F)F)cc1)NC1(C(=O)NCc2ccco2)CCCCC1
IC50: > 50000 nM (inactive)
pIC50 [1]: < 4.30
pIC50 [2]: < 4.30

O=c1ccc2ccc(F)c3c2n1C[C@H]3CN1CCC(NCc2cc3ccccc3o2)CC1
pIC50: 6.70
pIC50 [1]: 4.49
pIC50 [2]: 6.89

Cc1c(C(C)NC(=O)Nc2cccc(Cl)c2)sc2ncnn12 (stereo not drawn)
pIC50: 6.70
pIC50 [1]: < 4.30
pIC50 [2]: 6.80

N#Cc1ccc(C(=O)Nc2cccc(-c3cccc(CN4CCC(O)CC4)c3)c2)cc1
pIC50: 5.10
pIC50 [1]: 4.49
pIC50 [2]: 5.10

CC(=O)Nc1ccc(-c2csc(NC(=O)c3ccc([N+](=O)[O-])s3)n2)cc1
pIC50: 6.89
pIC50 [1]: 5.30
pIC50 [2]: 7.00

O=C(CC1(O)C(=O)N(Cc2cccs2)c2ccc(Br)cc21)c1cccnc1 (stereo not drawn)
pIC50: 4.40
pIC50 [1]: 5.40
pIC50 [2]: 4.60

Cc1nc(-c2ccc3c(c2)OCO3)sc1C(=O)NCc1ccc2c(c1)OCO2
pIC50: 6.10
pIC50 [1]: < 4.30
pIC50 [2]: 6.30

Cc1cc(C#N)c([N+](=O)[O-])cc1Br
pIC50: 6.49
pIC50 [1]: 4.30
pIC50 [2]: 7.30

Cc1[nH]nc(-c2nc3ccccc3[nH]2)c1C(=O)NC1CCCNC1 (stereo not drawn)
pIC50: 7.20
pIC50 [1]: 5.49
pIC50 [2]: 7.40

CCc1nn(-c2ncc(F)c(NC(C)C)n2)c(N)c1C1CCCCC1
pIC50: 5.49
pIC50 [1]: 6.00
pIC50 [2]: 5.80

Cc1nn(-c2ccccc2)nc1CNC(=O)CN(Cc1ccccn1)Cc1ccccn1
pIC50: 5.00
pIC50 [1]: 4.20
pIC50 [2]: 5.49

CNc1cc(Cn2c(C(=O)c3cc(C)cc(Cl)c3)c(C(C)C)c(=O)[nH]c2=O)ccn1
pIC50: 7.70
pIC50 [1]: < 4.30
pIC50 [2]: 7.70

CC(C)CC(=O)NC(c1cccs1)c1ccc2cccnc2c1O (stereo not drawn)
pIC50: 5.89
pIC50 [1]: 5.70
pIC50 [2]: 6.10

CCCCc1cc(Nc2cc(C3CCC3)[nH]n2)nc(N2CCC2C(N)=O)n1 (stereo not drawn)
pIC50: 5.49
pIC50 [1]: 6.10
pIC50 [2]: 5.80

COc1cccc(Nc2cc(C)nc(-c3ccccn3)n2)c1
pIC50: 4.89
pIC50 [1]: 5.30
pIC50 [2]: 5.10

O=C(Nc1cccc(F)c1)N1CCC(Oc2cccc(-c3cccnc3)c2)CC1
pIC50: 6.20
pIC50 [1]: 4.60
pIC50 [2]: 6.30

Clc1ccc(CN2CCN(C3=NCCN3)CC2)cc1Cl
pIC50: 5.00
pIC50 [1]: < 4.30
pIC50 [2]: 6.00

Cc1ccccc1CNc1cc(C2CC2)nc(-c2nccn2C)n1
pIC50: 6.10
pIC50 [1]: 6.10
pIC50 [2]: 6.10

O=C(c1ccccc1)N1CCC(C(=O)N2CCC(Oc3ccccc3Cl)CC2)CC1
pIC50: 4.49
pIC50 [1]: < 4.30
pIC50 [2]: 4.60

O=C(Nc1nc(-c2ccccn2)cs1)N1C[C@H]2C[C@@]2(c2ccccc2)C1
pIC50: 6.30
pIC50 [1]: 6.10
pIC50 [2]: 6.60

Cc1cc2ncn(-c3ccc([N+](=O)[O-])cc3C#N)c2cc1C
pIC50: 5.70
pIC50 [1]: < 4.30
pIC50 [2]: 6.10

CC(C)(C)Nc1nc(-c2ccccn2)nc2ccccc12
pIC50: 5.70
pIC50 [1]: 6.49
pIC50 [2]: 5.89

Fc1ccc(OC2CC(NCc3cccc4cn[nH]c34)C2)cc1C(F)(F)F (stereo not drawn)
pIC50: 6.70
pIC50 [1]: 5.10
pIC50 [2]: 6.80

Cc1cc(C)n(-c2nc(NC(C)C)nc(NC(C)(C)C)n2)n1
pIC50: 5.80
pIC50 [1]: 6.70
pIC50 [2]: 6.30

Cc1cc(NC(=O)C2CC2)ccc1OC1CCN(Cc2ccco2)CC1
pIC50: 4.40
pIC50 [1]: 4.40
pIC50 [2]: 4.70

O=C1NCCn2ccc(Nc3nc(NC4CCC(O)CC4)ncc3Cl)c21 (stereo not drawn)
pIC50: 4.70
pIC50 [1]: 6.40
pIC50 [2]: 5.49

CC(c1ccccn1)N(C)Cc1nc2ccccc2n1C(C)C (stereo not drawn)
pIC50: 5.20
pIC50 [1]: < 4.30
pIC50 [2]: 5.70

CN(CC1CCCO1)S(=O)(=O)c1ccc(C(=O)Nc2nc(-c3ccccn3)cs2)cc1 (stereo not drawn)
pIC50: 5.70
pIC50 [1]: 4.70
pIC50 [2]: 5.89

O=C(CSc1nnc2ccc(-c3ccc(F)cc3)nn12)N1CCCCC1
pIC50: 5.70
pIC50 [1]: < 4.30
pIC50 [2]: 6.00

CN(C)S(=O)(=O)c1cccc(CSc2nnc(-c3ccc4c(c3)OCO4)o2)c1
pIC50: 7.00
pIC50 [1]: < 4.30
pIC50 [2]: 7.30

CCCn1c(NC(=O)Cc2ccc(Cl)cc2)nc2ccccc21
pIC50: 5.70
pIC50 [1]: < 4.30
pIC50 [2]: 5.89

COc1ccc(C2CC(c3ccccc3Cl)=NN2C(=O)CNC(=O)C2CCCC2)cc1 (stereo not drawn)
pIC50: 5.49
pIC50 [1]: < 4.30
pIC50 [2]: 5.70

O=C(COc1nn(-c2ccccc2)c2ncccc12)NCc1ccccc1
IC50: > 50000 nM (inactive)
pIC50 [1]: < 4.30
pIC50 [2]: 4.49

CNC(=O)C1Cc2ccccc2N1C(=O)COc1cccc(OC)c1 (stereo not drawn)
IC50: > 50000 nM (inactive)
pIC50 [1]: < 4.30
pIC50 [2]: < 4.30

N#Cc1cc([N+](=O)[O-])ccc1NC1CCCCCC1
pIC50: 5.70
pIC50 [1]: < 4.30
pIC50 [2]: 5.89

N#Cc1nc(C=Cc2ccccc2)oc1NCc1cccnc1
pIC50: 6.40
pIC50 [1]: 4.80
pIC50 [2]: 6.40

COc1ccc(CN(C)Cc2ccncc2)cc1-c1ccc(S(=O)(=O)NC2CCC2)s1
pIC50: 6.20
pIC50 [1]: 5.00
pIC50 [2]: 6.30

COc1ccc2ncc(=O)n(CCN3CC[C@H](NCc4ncc(Cl)c5[nH]ncc45)[C@H](O)C3)c2n1
pIC50: 5.49
pIC50 [1]: < 4.30
pIC50 [2]: 5.80

CN(C)Cc1ccc(-c2ccc(S(=O)(=O)NCC3CCCO3)c(F)c2)cc1 (stereo not drawn)
pIC50: 5.30
pIC50 [1]: 4.20
pIC50 [2]: 5.70

O=C(NC1C(=O)N(c2ccccc2)C1c1cccnc1)c1ccc(Cl)s1 (stereo not drawn)
pIC50: 7.30
pIC50 [1]: < 4.30
pIC50 [2]: 7.40

Cn1nc(-c2ccc(NC(=O)Cc3ccccc3Cl)cc2)c2c(N)ncnc21
pIC50: 5.89
pIC50 [1]: 5.10
pIC50 [2]: 6.00

NS(=O)(=O)c1ccc(Nc2ncc3cccc(OC4CCNCC4)c3n2)cc1
pIC50: 7.30
pIC50 [1]: 6.20
pIC50 [2]: 7.70

O=S(=O)(NCC(c1cccnc1)N1CCN(c2ccccc2F)CC1)c1ccc(F)cc1 (stereo not drawn)
pIC50: 6.70
pIC50 [1]: < 4.30
pIC50 [2]: 6.70

O=C(c1cccc(Cl)c1Cl)N1CCn2c1nc(-c1ccncc1)cc2=O
pIC50: 6.49
pIC50 [1]: < 4.30
pIC50 [2]: 6.49

CNc1c(C(N)=O)c(-c2ccc3scnc3c2)nn1CC(F)(F)F
pIC50: 6.60
pIC50 [1]: < 4.30
pIC50 [2]: 6.80

O=C(Cn1cnc2c(-c3ccccc3)csc2c1=O)N1CCCCC1
pIC50: 5.40
pIC50 [1]: < 4.30
pIC50 [2]: 5.49

O=S1N=C(NCCCN(Cc2ccc(F)cc2)c2ccccn2)C(NCc2ccncc2)=N1 (stereo not drawn)
pIC50: 4.30
pIC50 [1]: < 4.30
pIC50 [2]: 4.40

COc1cc(OC)cc(C(=O)N[C@@H](CC(C)C)C(=O)NC2(C#N)CC2)c1
IC50: > 50000 nM (inactive)
pIC50 [1]: < 4.30
pIC50 [2]: < 4.30

CCCc1nc2nc(N)nc(N)c2cc1CC
pIC50: 6.49
pIC50 [1]: 4.89
pIC50 [2]: 7.10

Cc1cc2nc(N3CC[C@H]3C(N)=O)nc(Nc3cc(C4CC4)[nH]n3)c2s1
pIC50: 5.10
pIC50 [1]: 6.30
pIC50 [2]: 5.40

CC(C)(C)Nc1nc(Nc2ccc3c(c2)CS(=O)(=O)C3)nc2[nH]ccc12
pIC50: 4.49
pIC50 [1]: 6.00
pIC50 [2]: 4.70

COc1ccc(NS(=O)(=O)c2cc(NC(=O)c3ccc([N+](=O)[O-])s3)ccc2OC)cc1
pIC50: 7.00
pIC50 [1]: < 4.30
pIC50 [2]: 7.10

Cn1cc(CN2CCN(c3ccc4c(c3)CCN(C(=O)[C@H]3C[C@@H]3c3ccccc3)CC4)CC2)cn1
pIC50: 5.49
pIC50 [1]: 4.49
pIC50 [2]: 6.10

Cn1ccnc1CN1CCc2[nH]cnc2C1c1ccccc1OCc1ccccc1 (stereo not drawn)
IC50: > 50000 nM (inactive)
pIC50 [1]: < 4.30
pIC50 [2]: < 4.30

CCC(=O)N1N=C(c2ccc3c(c2)CCCC3)Sc2c1ncn2C(=O)CC
pIC50: 4.70
pIC50 [1]: < 4.30
pIC50 [2]: 4.89

CNc1nc(C)nc(N2CCc3cc(C(=O)NCc4ccc(-c5ccn[nH]5)cc4Cl)ccc32)n1
IC50: > 50000 nM (inactive)
pIC50 [1]: 4.70
pIC50 [2]: < 4.30

COc1ccc2ncc(=O)n(CCN3CCC(NCc4ccc(-c5cccs5)cc4)CC3)c2n1
pIC50: 5.80
pIC50 [1]: 5.10
pIC50 [2]: 6.80

Cc1cccnc1CN1CCN(CCCOc2ccc(-c3ccc(C(N)=O)cc3)cc2)CC1
pIC50: 4.70
pIC50 [1]: < 4.30
pIC50 [2]: 6.40

CCOc1ccc(NC(=O)C=Cc2ccc(CC)o2)cc1
pIC50: 4.60
pIC50 [1]: < 4.30
pIC50 [2]: 4.80

NC(=O)c1cc(F)ccc1Nc1nc(NC2CCC(O)CC2)ncc1Cl (stereo not drawn)
pIC50: 5.30
pIC50 [1]: 5.80
pIC50 [2]: 5.80

Cc1nc2c(-c3n[nH]c(-c4ccccc4N)n3)cccn2c1C
pIC50: 5.60
pIC50 [1]: 5.30
pIC50 [2]: 5.80

Cc1cc(N(C)C)nc(Nc2ccccc2C)n1
pIC50: 6.10
pIC50 [1]: < 4.30
pIC50 [2]: 6.30

COc1ccc(C2=NCC(CSc3nnc(-c4ccc5c(c4)OCO5)o3)S2)cc1 (stereo not drawn)
pIC50: 6.30
pIC50 [1]: < 4.30
pIC50 [2]: 6.49

Cn1c(CN2CCN(c3ncc(C(F)(F)F)cc3Cl)CC2)nc2ccncc21
pIC50: 6.00
pIC50 [1]: < 4.30
pIC50 [2]: 6.00

Cc1nc(C(=O)Nc2ccc3c(c2)OCO3)nn1-c1ccc(F)cc1
pIC50: 5.89
pIC50 [1]: < 4.30
pIC50 [2]: 6.00

Cn1ccnc1-c1nc(NCc2ccccc2Cl)cc(C2CC2)n1
pIC50: 6.10
pIC50 [1]: 6.20
pIC50 [2]: 6.10

OC[C@@H](Nc1nccc(-c2c(-c3ccc(F)cc3)ncn2C2CCNCC2)n1)c1ccccc1
pIC50: 4.89
pIC50 [1]: 5.70
pIC50 [2]: 4.89

O=C(NCc1nnc2n1CCCCC2)c1ccc(-c2ccc(F)cc2)o1
pIC50: 5.80
pIC50 [1]: < 4.30
pIC50 [2]: 6.00

— PubChem BioAssay AID1159565 (GlaxoSmithKline (GSK), 2015)
